Experimental data from patent US20260335335A1, “PHARMACEUTICAL FORMULATION COMPRISING A COATED TABLET” (Genentech, Inc., priority 2023, published 2026).
“Also recorded” adds a separate entry of the source.

What was measured:
[1] = Light sensitivity of GDC-0077 (INAVOLISIB); assay type: physicochemical
[2] = system: mutant PI3Kα; settings: role: inhibitor; relative to non-mutant PI3Kα; cited from earlier work
[3] = system: PI3Kα isoform; settings: role: inhibitor; relative to PI3 KB, PI3K8 and PI3Ky isoforms; cited from earlier work

**Q.** For `C[C@H](Nc1ccc2c(c1)OCCn1cc(N3C(=O)OC[C@H]3C(F)F)nc1-2)C(N)=O` [GDC-0077 (INAVOLISIB), (S)-2-((2-((S)-4-(difluoromethyl)-2-oxooxazolidin-3-yl)-5,6-dihydrobenzo[f]imidazo[1,2-d][1,4]oxazepin-9-yl)amino)propanamide], which “Light sensitivity (in words)” value [1] is on record?
**A.** degrades under light stress conditions; also recorded: sensitive to light

**Q.** And the “Selectivity for mutant PI3Kα (in words)” value [2]?
**A.** selective for mutant PI3Kα expressing tumors relative to non-mutant PI3Kα expressing cells; also recorded: selective activity in modulating mutant forms of the PI3Kα (alpha) isoform

**Q.** And the “Selectivity for PI3Kα isoform (in words)” value [3]?
**A.** selectively inhibits the PI3Kα isoform relative to the PI3 KB, PI3K8, and PI3Ky isoforms
